pIC50: −log10 of the molar value. “Also recorded” adds a separate entry of the source.

One may read the pIC50 as −log10 of the IC50, conventionally taken in molar units.

In one test the test system is splinted skin wounds. Briefly: excisional wound splinting model, mice. It counts as in vivo, mouse. Conditions: low-dose regimen, versus saline.
Test [1] deals with skin excisional wounds in diabetic rats. Kind of test: skin excisional wound healing in STZ-induced diabetic rats. In kind it is in vivo, rat (Lewis). Conditions: Tacrolimus 0.1 mg/kg daily, AMD3100 1.0 mg/kg every two days s.c., saline day 23. From the text: Diabetic rat model. Streptozotocin (STZ) is an antibiotic that can cause pancreatic beta-cell destruction, so it is widely used experimentally as an agent capable of inducing insulin-dependent diabetes mellitus (IDDM), also known as type 1 diabetes mellitus (T1DM). The most common animal model of human diabetes is streptozotocin (STZ)-induced diabetes in the rat. Streptozotocin (STZ)-induced diabetic rat model used to determine the skin wound healing. All rats (aged at 12-16 weeks) developed diabetes (blood glucose >450 mg/dL) 2 weeks after STZ injection (50 mg/kg, i.p.). The four excisional wounds were placed 1 cm to either side of the midline and 1 cm above and below the midpoint between the costal margin and the iliac crests. The sterile disposable biopsy punch (5 mm in diameter; Miltex) was aligned vertically over the center of the mark and punched through the skin and Panniculus carnosus by applying pressure and twisting at the same time. The same procedure was repeated, generating four wounds on each animal. Treatment and wound measurement. […] Each wound site was digitally photographed at the indicated time intervals, and wound areas were determined on photographs using Adobe Photoshop (version 7.0; Adobe Systems, San Jose, CA). Changes in wound areas over time were expressed as the percentage of the initial wound areas. All wound evaluations were double blinded.

For test [2], the system named is c-Kit+, CD34+, CD133+ cells in wound tissue. Kind of test: immunofluorescence staining of wound sections for stem cell markers. It counts as in vivo, mouse. As to conditions: mice, 5 days post-injury. On the procedure:
(§1) Immunofluorescence staining: For the immunofluorescence staining, frozen sections were fixed with acetone (−20° C.) for 10 min and dried for 1 h at room temperature. PBS containing 1% BSA and 5% normal donkey serum was used to block nonspecific background. Sections were incubated for 1.5 h at room temperature with primary antibodies included: rabbit polyclonal antibody specific for CD133 (1:100, ab19898, Abcam, Cambridge, MA), rabbit polyclonal antibody specific for c-Kit (1:100, sc-168, Santa Cruz Biotechnology, Santa Cruz, CA), goat polyclonal antibody specific for CD34 (1:100, AF4117, R&D Systems, Minneapolis, MN), mouse monoclonal antibody specific for SDF-1 (1:100, MAB310, R&D Systems), FITC-conjugated rat monoclonal antibody specific for F4/80 (1:100, 11-4801, eBioscience, San Diego, CA), mouse monoclonal antibody specific for α-SMA (1:100, ab7817, Abcam), rat monoclonal antibody specific for CD31 (1:100, 14-0311, eBioscience) or rabbit polyclonal antibody specific for HGF (1:100, sc-7949, Santa Cruz), or the combinations of two of them for double fluorescence staining. […] Tissue sections were analyzed by confocal microscopy (Carl Zeiss Microscopy, Thornwood, NY).

The subject of test [3] is lacZ and GFP positive (CD133 lineage) cells in granulation tissues. Kind of test: CD133 lineage tracing in wounded CD133+/C-L mice. As to conditions: 5 days after wounding, versus saline group 1. In kind it is in vivo, mouse (CD133+/C-L).
Protocol: To activate CreERT2 expressed from the CD133C-L locus, thereby irreversibly activating GFP expression in CD133+ cells and their progeny, 7 days prior to surgery, adult mT/mG; CD133+/C-L-RosaEGFP mice were injected intraperitoneally with 5.0 mg of tamoxifen (Sigma) dissolved in corn oil (FIG. 6a; Muzumdar et al., 2007). […] Animal were sacrificed by CO2 euthanasia at indicated time points and skin samples including and surrounding the wound area were excised, fixed in 2% paraformaldehyde overnight at 4° C., cryo-protected in 30% sucrose overnight at 4° C. and frozen in OCT (optimum cutting temperature). Frozen sections were obtained using a Leica cryostat and slides were washed in PBS for 5 min. The lacZ analysis was performed with commercial β-Galactosidase staining kit (BioVision Inc. Milpitas, CA) utilizes X-gal as the substrate. […] For GFP microscopy, the skin sections were overlaid with mounting medium with DAPI (Vector Laboratories Inc., Burlingame, CA) and imaged with a confocal fluorescence microscopy (Carl Zeiss Microscopy, Thornwood, NY). To identify structure of lacZ- and GFP-positive tissues and cells, the same section was sequentially stained with DAPI for GFP fluorescence studies, followed by staining with X-gal and hematoxylin and eosin (H&E) (IHC World, Woodstock, MD), according to the manufacturer's instructions. […]
Test [4] concerns cell migration stimulated by CXCL12. Conditions: cited from earlier work.
Test [5] deals with α-smooth muscle actin (SMA) positive myofibroblast cells. Briefly: immunofluorescence staining for α-SMA. It counts as in vivo, mouse. As to conditions: mice, five days; versus saline group 1. On the procedure:
as §1

Test [6] concerns hair follicles and scar in healed wounds. Briefly: histology and hair follicle quantification of re-epithelialized wounds, mice. As to conditions: day 15. It counts as in vivo, mouse. From the text:
Histology and microscopy. Tissues from wound sites were collected at day 3, 5, 7, 9 and 15 after injury. Quantitative analysis of hair follicles: The number of regenerated hair follicles was quantified in a double-blind fashion. In nonwounded skin, the number of hair follicles in the area from the same location as the wound were counted and compared to experimental groups (FIG. 2A and FIG. 9A; broken lines indicated wound margin). Masson's trichrome (commercial kit from Polysciences, Inc. Warrington, PA) was used to detect collagen fibers (blue color).

Test [7] relates to full-thickness burn wounds. Kind of test: burn wound model in mice. It counts as in vivo, mouse. Conditions: burned mice; Tacrolimus 0.1 mg/kg daily, AMD3100 1.0 mg/kg every two days s.c.; saline day 26. On the procedure: Burn wound model in mice. Mice aged […] were anesthetized with 3% isoflurane (Baxter Healthcare Co., Deerfield, IL, USA) using an anesthesia machine, shaved on the dorsum and depilated with Nair cream (Church & Dwight Co., Princeton, NJ, USA). The burn wound was generated as previously reported (Arch Surg 2010; 145: 259-266). Briefly, a custom made 100-g aluminum rod was heated in a 100° C. water bath for 5 min. One burns of 1.2-cm diameter were produced on the dorsum of each mouse. To assure burn uniformity, only the weight of the rod provided pressure to the skin surface. Contact time of 4 s measured with a metronome was chosen to produce a standardized full-thickness burn. The burns were third degree including destruction of the skin, subcutaneous tissue and the Panniculous carnosus. Buprenorphine (0.1 mg/kg) was administrated subcutaneously for analgesia. Treatment and wound measurement. […] Each wound site was digitally photographed at the indicated time intervals, and wound areas were determined on photographs using Adobe Photoshop (version 7.0; Adobe Systems, San Jose, CA). Changes in wound areas over time were expressed as the percentage of the initial wound areas. All wound evaluations were double blinded.

Test [8] relates to full-thickness skin excisional wounds. Briefly: in vivo full-thickness excisional wound model, mice. Also noted: species or system mouse (C57BL/6). Conditions: for day of complete wound closure: 5-mm excisions, s.c. Tacrolimus 0.1 mg kg-1 daily, AMD3100 1.0 mg kg-1 every other day, saline day 12. An excerpt:
In vivo excisional wound model. Animals aged 8-12 weeks were anesthetized with Isoflurane. The dorsal skin was shaved and cleaned with betadine and 70% ethanol. In mice, the midline and four points 1 cm on each side of the midline were marked by pen. Two points were at the level of the costal margin and two at the iliac crests designating the sites for excision (FIG. 1A). In rats, the four excisional wounds were placed 1 cm to either side of the midline and 1 cm above and below the midpoint between the costal margin and the iliac […] (FIG. 7a). The sterile disposable biopsy punch (5 mm in diameter; Miltex) was aligned vertically over the center of the mark and punched through the skin and Panniculus carnosus by applying pressure and twisting at the same time. The same procedure was repeated, generating four wounds on each animal (Tomlinson and Ferguson, 2003). The animals were house singly after regaining consciousness. For the mouse splinted wound model, one 5 mm excision was made on each side of the midline on the mid back. The donut-shaped, 0.5 mm-thick silicone splints with a diameter two times that of the wound (Grace Bio-Laboratories, Bend, OR) were then centered, sutured and glued (Krazy Glue®; Elmer's Inc., Columbus, OH) (FIG. 1F; Galiano et al., 2004). […] Each wound site was digitally photographed at the indicated time intervals, and wound areas were determined on photographs using Adobe Photoshop (version 7.0; Adobe Systems, San Jose, CA). Changes in wound areas over time were expressed as the percentage of the initial wound areas (FIG. 1). Example 1: AMD3100 plus low-dose Tacrolimus accelerated wound healing after full-thickness skin excision. Four full-thickness wounds were generated by 5-mm diameter circular excisions on the shaved back of a wild-type C57/B6 mouse (FIG. 1A). Each wound site was photographed digitally at the indicated time intervals, and wound areas were calculated using Adobe Photoshop software. Changes in wound areas over time were expressed as the percentage of the initial wound areas (FIG. 1b). […] All wound evaluations were double blinded.

Another test relates to SDF-1 mRNA. Briefly: semi-quantitative RT-PCR of granulation tissues, SDF-1. It counts as in vivo, mouse. Conditions: mice, 5 days post-injury. The procedure:
Semiquantitative reverse transcription polymerase chain reaction analysis. Skin specimens were kept frozen at −80° C. until homogenized for RNA extraction using the TRIzol Reagent (Invitrogen, Carlsbad, CA, USA). First strand cDNA synthesis was then performed on 5 μg of total RNA using the superscript first-strand synthesis system for reverse transcription polymerase chain reaction (RT-PCR; Invitrogen) according to the manufacturer's instructions. The PCR contained 1 μL of deoxynucleoside triphosphate mix (10 mM each dNTP), 1 μL of 10 μM each primer, 0.4 μL, (5 IU μL−1) of Platinum Taq polymerase (Invitrogen), 1.5 μL of 50 mM MgCl2 and 2 μL […] as template in a 50 μL reaction solution. Thermal cycling was started with one cycle at 94° C. for 4 min. This was followed by 25-35 cycles at 94° C. for 30 s, 59° C. for 30 s, 72° C. for 30 s and 72° C. for final extension for 10 min. PCR products were electrophoresed on 1.2% agarose gels and visualized with GelStar® Stain (Lonza Rockland Inc., Rockland, ME). […] The expression levels of target mRNA were quantified by densitometry and normalized with the corresponding internal control.

Test [9] concerns SDF-1 and F4/80 positive cells (macrophages) in wound sites. Briefly: immunofluorescence staining for SDF-1 and F4/80. In kind it is in vivo, mouse. As to conditions: mice, 5 days post-injury. The procedure:
as §1

Description for splinted skin wounds: In vivo excisional wound model. Animals aged 8-12 weeks were anesthetized with Isoflurane. The dorsal skin was shaved and cleaned with betadine and 70% ethanol. In mice, the midline and four points 1 cm on each side of the midline were marked by pen. Two points were at the level of the costal margin and two at the iliac crests designating the sites for excision (FIG. 1A). […] The sterile disposable biopsy punch (5 mm in diameter; Miltex) was aligned vertically over the center of the mark and punched through the skin and Panniculus carnosus by applying pressure and twisting at the same time. The same procedure was repeated, generating four wounds on each animal (Tomlinson and Ferguson, 2003). The animals were house singly after regaining consciousness. For the mouse splinted wound model, one 5 mm excision was made on each side of the midline on the mid back. The donut-shaped, 0.5 mm-thick silicone splints with a diameter two times that of the wound (Grace Bio-Laboratories, Bend, OR) were then centered, sutured and glued (Krazy Glue®; Elmer's Inc., Columbus, OH) (FIG. 1F; Galiano et al., 2004).
To deter this mechanism, we performed the excisional wound splinting model, where a splinting ring is bonded tightly to the skin around the wound (FIG. 1e). The wound therefore heals through granulation and re-epithelialization, a process similar to the healing of most human skin defects.

Regarding `c1cc(CN2CCCNCCNCCCNCC2)ccc1CN1CCCNCCNCCCNCC1` [AMD3100, 1,1′-[1,4-phenylenebis(methylene)]bis-1,4,8,11-tetraazacyclo-tetradecane], the “wound repair in splinted wounds” value in the test with splinted skin wounds was “accelerated”. For the same molecule, the “day of complete wound closure” value in test [1] is 21 days; in test [7] it was 23 days; in [8], 11 days. Further, the “number of CD133+, c-Kit+ and CD34+ cells in wound tissue sections” value in test [2] is listed as “relatively mild recruitment of stem cells”. For the same molecule, in test [3], the “numbers of lacZ and GFP positive cells in granulation tissues” value is recorded as “significantly higher”. For the same molecule, the pIC50 in [4] was 7.29. In test [5], the “number of α-SMA positive myofibroblast cells in granulation tissues” value is “increased”. Moreover, the “number of hair follicles in re-epithelialized wound” value in [6] is listed as “few hair follicles”. Further, the “effect of high doses on skin wound healing” value in test [8] (Tacrolimus 1.0 mg kg-1 daily, AMD3100 5.0 mg kg-1 every two days, versus saline) is listed as “no significant difference; also recorded: failed to demonstrate significant difference”.
Regarding `C=CC[C@@H]1/C=C(\C)C[C@H](C)C[C@H](OC)[C@H]2O[C@@](O)(C(=O)C(=O)N3CCCC[C@H]3C(=O)O[C@H](/C(C)=C/[C@@H]3CC[C@@H](O)[C@H](OC)C3)[C@H](C)[C@@H](O)CC1=O)[C@H](C)C[C@@H]2OC` [Tacrolimus], in the test with splinted skin wounds, the “wound repair in splinted wounds” value was “accelerated”. For the same molecule, the “day of complete wound closure” value was 21 days in [1], 21 days in [7] and 11 days in test [8]. Moreover, the “numbers of lacZ and GFP positive cells in granulation tissues” value in test [3] is “significantly higher”. For the same molecule, in test [5], the “number of α-SMA positive myofibroblast cells in granulation tissues” value is recorded as “increased”. For the same molecule, the “number of hair follicles in re-epithelialized wound” value in test [6] is on record as “few hair follicles”. Besides, the “SDF-1 mRNA expression in granulation tissues” value in the test on SDF-1 mRNA is listed as “significantly increased”. Moreover, in [9], the “number of SDF-1 and F4/80 positive cells in wound sites” value is “significantly greater”.

Values taken from patent US12048687B2, “Methods of recruiting SDF-producing macrophages” (MedRegen, LLC, priority 2013, dated 2024).
